The target of assay [1] is Atypical kinase COQ8A, mitochondrial (Homo sapiens, UniProt Q8NI60).
For assay [2], the target named is T1, Serine/threonine-protein kinase A-Raf (Homo sapiens, UniProt P10398).
T1 sequence (P10398 whole entry): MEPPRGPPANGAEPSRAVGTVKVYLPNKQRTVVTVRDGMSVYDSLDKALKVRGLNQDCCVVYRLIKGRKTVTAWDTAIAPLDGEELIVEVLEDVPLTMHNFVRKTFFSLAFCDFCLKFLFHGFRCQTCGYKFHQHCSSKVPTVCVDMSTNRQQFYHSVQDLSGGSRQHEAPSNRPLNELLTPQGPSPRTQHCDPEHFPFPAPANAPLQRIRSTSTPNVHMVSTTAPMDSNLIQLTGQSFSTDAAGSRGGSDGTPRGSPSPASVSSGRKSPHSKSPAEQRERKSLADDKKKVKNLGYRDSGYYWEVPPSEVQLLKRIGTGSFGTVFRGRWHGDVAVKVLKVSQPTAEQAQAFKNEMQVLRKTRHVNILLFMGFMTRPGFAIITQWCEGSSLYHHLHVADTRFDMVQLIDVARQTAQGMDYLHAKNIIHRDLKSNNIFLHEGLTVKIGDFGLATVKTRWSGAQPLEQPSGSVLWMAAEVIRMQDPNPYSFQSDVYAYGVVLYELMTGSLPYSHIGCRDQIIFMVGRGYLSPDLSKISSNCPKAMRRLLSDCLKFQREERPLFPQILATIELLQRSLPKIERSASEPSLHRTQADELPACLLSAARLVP

Assay [3] concerns the target T2, Delta(24)-sterol reductase (Homo sapiens, UniProt Q15392).
T2 sequence (Q15392 whole entry): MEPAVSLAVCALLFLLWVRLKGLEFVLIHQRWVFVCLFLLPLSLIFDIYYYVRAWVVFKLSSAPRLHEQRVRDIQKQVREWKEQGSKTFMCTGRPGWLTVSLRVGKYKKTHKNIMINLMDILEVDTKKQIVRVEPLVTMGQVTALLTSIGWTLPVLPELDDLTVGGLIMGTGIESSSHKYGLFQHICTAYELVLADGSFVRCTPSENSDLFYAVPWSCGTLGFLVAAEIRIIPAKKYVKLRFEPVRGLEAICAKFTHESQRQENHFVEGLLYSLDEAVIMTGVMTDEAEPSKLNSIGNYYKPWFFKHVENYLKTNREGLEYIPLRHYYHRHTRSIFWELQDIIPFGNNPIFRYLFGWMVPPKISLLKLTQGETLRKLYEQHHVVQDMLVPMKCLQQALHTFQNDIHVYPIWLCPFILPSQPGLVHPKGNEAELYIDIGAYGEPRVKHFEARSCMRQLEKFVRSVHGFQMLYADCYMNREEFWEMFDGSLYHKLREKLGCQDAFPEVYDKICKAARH

For assay [4], the target named is Glycogen synthase kinase-3 beta (Homo sapiens, UniProt P49841).
Glycogen synthase kinase-3 beta, sequence (P49841 whole entry): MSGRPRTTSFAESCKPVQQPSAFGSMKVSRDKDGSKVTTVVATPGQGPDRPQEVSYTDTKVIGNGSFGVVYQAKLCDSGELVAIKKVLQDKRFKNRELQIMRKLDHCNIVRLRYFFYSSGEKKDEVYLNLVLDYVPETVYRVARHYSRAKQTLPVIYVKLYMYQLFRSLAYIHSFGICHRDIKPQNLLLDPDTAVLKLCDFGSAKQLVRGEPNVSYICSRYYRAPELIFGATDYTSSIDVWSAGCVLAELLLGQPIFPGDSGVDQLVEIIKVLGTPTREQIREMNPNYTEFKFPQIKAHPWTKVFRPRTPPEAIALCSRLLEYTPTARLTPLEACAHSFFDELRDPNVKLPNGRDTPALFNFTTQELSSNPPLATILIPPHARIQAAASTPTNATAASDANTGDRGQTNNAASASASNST
In the next assay the target is T3, Heme oxygenase 2 (Homo sapiens, UniProt P30519).
T3 sequence (P30519 whole entry): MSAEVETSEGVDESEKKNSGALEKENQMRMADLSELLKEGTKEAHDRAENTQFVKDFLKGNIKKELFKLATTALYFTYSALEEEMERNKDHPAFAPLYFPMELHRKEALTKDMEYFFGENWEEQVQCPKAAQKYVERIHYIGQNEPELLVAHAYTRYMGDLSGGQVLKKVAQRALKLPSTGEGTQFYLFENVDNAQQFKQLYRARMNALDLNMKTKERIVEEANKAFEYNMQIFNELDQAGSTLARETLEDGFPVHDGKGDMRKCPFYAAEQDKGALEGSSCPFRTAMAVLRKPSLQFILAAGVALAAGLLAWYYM

Assay [5] has as its target T4, Structural maintenance of chromosomes protein 1A (Homo sapiens, UniProt Q14683).
T4 sequence (Q14683 whole entry): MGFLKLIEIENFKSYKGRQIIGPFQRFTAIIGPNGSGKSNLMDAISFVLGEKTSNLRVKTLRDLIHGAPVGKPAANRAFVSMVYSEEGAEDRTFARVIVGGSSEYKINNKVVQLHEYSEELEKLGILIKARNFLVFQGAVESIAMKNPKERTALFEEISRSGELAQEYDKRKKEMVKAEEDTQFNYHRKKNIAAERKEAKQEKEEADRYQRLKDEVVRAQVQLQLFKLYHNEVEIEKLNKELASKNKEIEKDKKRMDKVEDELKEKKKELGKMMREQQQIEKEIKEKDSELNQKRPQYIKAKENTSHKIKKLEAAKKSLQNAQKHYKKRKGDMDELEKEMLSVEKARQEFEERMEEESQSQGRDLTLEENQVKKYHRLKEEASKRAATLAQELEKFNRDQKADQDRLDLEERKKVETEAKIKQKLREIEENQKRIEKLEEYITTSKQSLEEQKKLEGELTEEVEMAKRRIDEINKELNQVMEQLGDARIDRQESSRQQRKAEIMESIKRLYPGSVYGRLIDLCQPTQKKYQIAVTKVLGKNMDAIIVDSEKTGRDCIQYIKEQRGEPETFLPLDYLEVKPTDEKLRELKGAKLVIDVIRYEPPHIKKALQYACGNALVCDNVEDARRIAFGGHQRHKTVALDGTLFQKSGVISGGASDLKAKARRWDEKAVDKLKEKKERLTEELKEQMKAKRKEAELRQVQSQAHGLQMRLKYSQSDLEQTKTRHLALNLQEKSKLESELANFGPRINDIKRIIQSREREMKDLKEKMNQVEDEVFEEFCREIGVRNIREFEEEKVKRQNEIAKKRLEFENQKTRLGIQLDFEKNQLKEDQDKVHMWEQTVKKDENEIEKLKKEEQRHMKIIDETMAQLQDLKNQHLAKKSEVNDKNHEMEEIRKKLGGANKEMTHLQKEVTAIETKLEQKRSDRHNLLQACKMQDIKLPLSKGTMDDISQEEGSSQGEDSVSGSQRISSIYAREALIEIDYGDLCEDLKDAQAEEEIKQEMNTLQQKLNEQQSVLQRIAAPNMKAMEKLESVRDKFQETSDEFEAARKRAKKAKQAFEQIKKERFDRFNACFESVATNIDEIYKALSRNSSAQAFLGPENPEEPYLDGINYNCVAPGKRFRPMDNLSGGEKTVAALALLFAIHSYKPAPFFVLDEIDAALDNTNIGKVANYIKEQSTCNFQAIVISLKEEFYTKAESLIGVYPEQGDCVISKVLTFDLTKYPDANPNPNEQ

The next assay concerns the target Activated CDC42 kinase 1 (Homo sapiens, UniProt Q07912).

Active and inactive are the calls of the source.

Drawing on ChEMBL document CHEMBL3991601, “The target landscape of clinical kinase drugs” (Science, 2017), this text covers Kd for nine molecules.
Also: in the data inactive means no Kd found up to 30 µM.

Atypical kinase COQ8A, mitochondrial, sequence (Q8NI60 whole entry): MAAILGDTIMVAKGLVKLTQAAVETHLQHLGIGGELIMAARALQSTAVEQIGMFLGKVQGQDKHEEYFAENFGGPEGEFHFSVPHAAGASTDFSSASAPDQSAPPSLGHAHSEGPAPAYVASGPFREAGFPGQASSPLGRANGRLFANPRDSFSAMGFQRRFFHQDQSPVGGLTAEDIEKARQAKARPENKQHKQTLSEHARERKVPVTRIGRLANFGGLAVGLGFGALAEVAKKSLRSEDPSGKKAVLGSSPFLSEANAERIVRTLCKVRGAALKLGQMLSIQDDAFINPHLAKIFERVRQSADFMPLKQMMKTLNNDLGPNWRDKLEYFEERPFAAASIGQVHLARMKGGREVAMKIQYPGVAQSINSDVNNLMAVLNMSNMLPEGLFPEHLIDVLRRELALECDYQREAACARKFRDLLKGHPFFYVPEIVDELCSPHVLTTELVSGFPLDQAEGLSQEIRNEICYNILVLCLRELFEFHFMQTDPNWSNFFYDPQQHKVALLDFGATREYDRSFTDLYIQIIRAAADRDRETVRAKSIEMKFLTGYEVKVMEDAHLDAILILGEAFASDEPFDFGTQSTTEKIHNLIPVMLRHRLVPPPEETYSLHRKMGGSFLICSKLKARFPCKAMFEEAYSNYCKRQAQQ
Activated CDC42 kinase 1, sequence (Q07912 whole entry): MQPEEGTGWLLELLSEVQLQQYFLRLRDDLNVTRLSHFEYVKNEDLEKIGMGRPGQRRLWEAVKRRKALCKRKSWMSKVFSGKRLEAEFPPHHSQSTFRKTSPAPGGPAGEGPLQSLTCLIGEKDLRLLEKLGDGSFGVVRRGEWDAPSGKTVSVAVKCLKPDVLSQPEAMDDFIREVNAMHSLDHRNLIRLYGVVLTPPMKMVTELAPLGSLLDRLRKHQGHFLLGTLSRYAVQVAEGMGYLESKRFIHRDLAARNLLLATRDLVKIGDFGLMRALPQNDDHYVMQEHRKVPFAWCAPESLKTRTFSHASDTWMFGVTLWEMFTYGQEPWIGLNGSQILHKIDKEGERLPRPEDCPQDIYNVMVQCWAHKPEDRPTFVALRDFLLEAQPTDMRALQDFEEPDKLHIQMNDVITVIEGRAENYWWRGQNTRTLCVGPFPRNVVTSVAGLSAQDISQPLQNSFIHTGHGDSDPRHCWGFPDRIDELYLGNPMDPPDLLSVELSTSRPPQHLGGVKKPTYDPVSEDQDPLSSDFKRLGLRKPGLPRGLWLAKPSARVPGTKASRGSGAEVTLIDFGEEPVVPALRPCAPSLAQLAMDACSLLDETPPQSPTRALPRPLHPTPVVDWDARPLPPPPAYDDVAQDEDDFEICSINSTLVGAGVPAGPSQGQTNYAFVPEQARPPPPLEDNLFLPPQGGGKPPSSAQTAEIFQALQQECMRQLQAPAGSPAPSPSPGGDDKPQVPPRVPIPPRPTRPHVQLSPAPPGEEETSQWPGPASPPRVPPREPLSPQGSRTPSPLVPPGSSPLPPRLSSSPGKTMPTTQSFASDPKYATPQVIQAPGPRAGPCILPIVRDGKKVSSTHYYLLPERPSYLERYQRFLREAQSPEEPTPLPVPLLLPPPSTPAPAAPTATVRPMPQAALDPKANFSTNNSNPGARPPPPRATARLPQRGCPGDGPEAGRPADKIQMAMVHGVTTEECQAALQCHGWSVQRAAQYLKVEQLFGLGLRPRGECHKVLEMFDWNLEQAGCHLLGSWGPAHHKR

Consider `CO[C@H]1C[C@@H]2CC[C@@H](C)[C@@](O)(O2)C(=O)C(=O)N2CCCC[C@H]2C(=O)O[C@H]([C@H](C)C[C@@H]2CC[C@@H](OC(=O)C(C)(CO)CO)[C@H](OC)C2)CC(=O)[C@H](C)/C=C(\C)[C@@H](O)[C@@H](OC)C(=O)[C@H](C)C[C@H](C)/C=C/C=C/C=C/1C` [TEMSIROLIMUS], for which the Kd (in assay [1]; in assay [2]; in assay [3]; in assay [4]; on Heme oxygenase 2; in assay [5]) was > 30 µM (inactive) each time. In addition, the Kd (usually the free concentration of one partner at which half of the binding sites on the other are occupied at equilibrium, for simple one-to-one binding) at Activated CDC42 kinase 1 was > 30 µM (inactive).

With `COc1cc2c(Nc3ccc(Cl)c(Cl)c3F)ncnc2cc1OC[C@@H]1C[C@@H]2CN(C)C[C@@H]2C1` [TESEVATINIB], the Kd (in assay [1]; in assay [2]; in assay [3]; in assay [4]; on Heme oxygenase 2; in assay [5]) was > 30 µM (inactive) each time. On Activated CDC42 kinase 1, the Kd is > 30 µM (inactive).

As for `O=C(Cc1ccc(-c2ccc(OCCN3CCOCC3)cc2)cn1)NCc1ccccc1` [TIRBANIBULIN], the Kd (in assay [1]; in assay [2]; in assay [3]; in assay [4]; on Heme oxygenase 2; in assay [5]) was > 30 µM (inactive) each time. Also, the Kd on Activated CDC42 kinase 1 was > 30 µM (inactive).

On to `O=C1NC(=O)[C@@H](c2cn3c4c(cccc24)CCC3)[C@@H]1c1c[nH]c2ccccc12` [TIVANTINIB], for which the Kd in assay [1] is > 30 µM (inactive); in assay [2], > 30 µM (inactive); in assay [3] it was > 30 µM (inactive); in assay [4], > 30 µM (inactive); at Heme oxygenase 2, 0.119 µM; in assay [5], > 30 µM (inactive). At Activated CDC42 kinase 1, the Kd was > 30 µM (inactive).

For the molecule `C[C@@H](NC(=O)c1ncnc(N)c1Cl)c1ncc(C(=O)Nc2cc(C(F)(F)F)c(Cl)cn2)s1` [TOVORAFENIB], the Kd (in assay [1]; in assay [2]; in assay [3]; in assay [4]; on Heme oxygenase 2; in assay [5]) was > 30 µM (inactive) in each case. Moreover, the Kd at Activated CDC42 kinase 1 is > 30 µM (inactive).

Turning to `Cc1cc(Nc2ncnc3ccc(NC4=NC(C)(C)CO4)cc23)ccc1Oc1ccn2ncnc2c1` [TUCATINIB], the Kd (in assay [1]; in assay [2]; in assay [3]; in assay [4]; on Heme oxygenase 2; in assay [5]) was > 30 µM (inactive) throughout. The Kd at Activated CDC42 kinase 1 is > 30 µM (inactive).

Take `CC(C)c1cc(CNc2nc(Nc3cc(C4CC4)[nH]n3)cc(N3CCN(C)CC3)n2)on1` [XL-228]: the Kd (in assay [1]; in assay [2]; in assay [3]; in assay [4]; on Heme oxygenase 2; in assay [5]) was > 30 µM (inactive) each time. For the same molecule, on Activated CDC42 kinase 1, the Kd is 0.076 µM (active).

In the case of `C[C@@H](N)c1ccc(C(=O)Nc2ccnc3[nH]ccc23)cc1` [Y-39983], the Kd is > 30 µM (inactive) in assay [1]; > 30 µM (inactive) in assay [2]; > 30 µM (inactive) in assay [3]; 0.924 µM (active) in assay [4]; > 30 µM (inactive) at Heme oxygenase 2; > 30 µM (inactive) in assay [5]. Moreover, the Kd at Activated CDC42 kinase 1 was > 30 µM (inactive).

Turning to `CN1C/C=C/CCOc2cccc(c2)-c2ccnc(n2)Nc2cccc(c2)C1` [ZOTIRACICLIB], the Kd in assay [1] was > 30 µM (inactive); in assay [2], > 30 µM (inactive); in assay [3], > 30 µM (inactive); in assay [4], 0.447 µM (active); at Heme oxygenase 2, > 30 µM (inactive); in assay [5], > 30 µM (inactive). The Kd at Activated CDC42 kinase 1 is > 30 µM (inactive).
